# According to patent publication US20060247320A1, “Compounds for inhibiting KSP kinesin activity” (priority 2005, published 2006):
# Read-outs that look alike come from different tables or passages of the source.
# Molecular target: T1, KSP motor domain (Homo sapiens, UniProt P52732)
# T1 sequence (P52732 18-359 limits assumed): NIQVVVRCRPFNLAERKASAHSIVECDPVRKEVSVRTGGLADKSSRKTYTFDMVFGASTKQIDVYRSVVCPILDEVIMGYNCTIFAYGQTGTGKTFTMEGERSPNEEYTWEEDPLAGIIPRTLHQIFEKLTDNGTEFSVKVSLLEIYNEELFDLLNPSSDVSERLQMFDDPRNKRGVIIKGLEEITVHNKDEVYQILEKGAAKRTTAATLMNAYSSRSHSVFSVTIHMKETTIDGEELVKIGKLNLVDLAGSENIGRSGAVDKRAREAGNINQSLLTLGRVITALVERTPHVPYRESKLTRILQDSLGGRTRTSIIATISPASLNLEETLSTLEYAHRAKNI
# Experiment: biochemical
# [1] = KSP inhibitory activity, end-point assay, class symbols (Table 1), read-out: IC50
# [2] = exact IC50 values, end-point assay (Table 2), read-out: IC50
# [3] = IC50 (nM), KSP inhibitory activity, end-point assay, class symbols (Table 1)
Compound,IC50 [1],also measured
CC(C)(C)C1CCc2nc3sc(CO)cc3cc2C1 (stereo not drawn) [Example 144],< 100 nM,IC50 [2]: 60 nM
CC(C)(C)C1CCc2nc3sc(CCl)cc3cc2C1 (stereo not drawn) [Example 145],100 to 1000 nM,
COCc1cc2cc3c(nc2s1)CCC(C(C)(C)C)C3 (stereo not drawn) [Example 146],1000 to 10000 nM,
CC(C)(C)C1CCc2nc3sc(COC(N)=O)cc3cc2C1 (stereo not drawn) [Example 147],,IC50 [3]: 1000 to 10000 nM
CC(C)(C)C1CCc2nc3sc(CC#N)cc3cc2C1 (stereo not drawn) [Example 148],1000 to 10000 nM,
CC(C)(C)C1CCc2nc3sc(CC(N)=O)cc3cc2C1 (stereo not drawn) [Example 149],1000 to 10000 nM,
CC(C)(C)C1CCc2nc3sc(CNCc4cc5cc6c(nc5s4)CCC(C(C)(C)C)C6)cc3cc2C1 (stereo not drawn) [Example 150],1000 to 10000 nM,
CNCc1cc2cc3c(nc2s1)CCC(C(C)(C)C)C3 (stereo not drawn) [Example 151],1000 to 10000 nM,
CN(C)Cc1cc2cc3c(nc2s1)CCC(C(C)(C)C)C3 (stereo not drawn) [Example 152],1000 to 10000 nM,
CC(C)(C)C1CCc2nc3sc(CN)cc3cc2C1 (stereo not drawn) [Example 153],1000 to 10000 nM,
CC(=O)NCc1cc2cc3c(nc2s1)CCC(C(C)(C)C)C3 (stereo not drawn) [Example 154],1000 to 10000 nM,
CC(C)(C)C1CCc2nc3sc(CNC(=O)C4CC4)cc3cc2C1 (stereo not drawn) [Example 155],1000 to 10000 nM,
CC(C)(C)C1CCc2nc3sc(CNC(N)=O)cc3cc2C1 (stereo not drawn) [Example 156],100 to 1000 nM,
"CC(C)[C@@H](CO)NC(=O)c1cc2cc3c(nc2s1)CCC(C(C)(C)C)C3 (stereo partly drawn) [Example 157, 6-tert-Butyl-5,6,7,8-tetrahydrothieno[2,3-b]quinoline-2-carboxylic acid [(1S)-1-hydroxymethyl-2-methyl-propyl]amide]",> 10000 nM,
CC[C@@H](CO)NC(=O)c1cc2cc3c(nc2s1)CCC(C(C)(C)C)C3 (stereo partly drawn) [Example 158],> 10000 nM,
CC(C)(C)C1CCc2nc3sc(C(=O)N[C@H](CO)Cc4ccccc4)cc3cc2C1 (stereo partly drawn) [Example 159],> 10000 nM,
CC(C)(C)C1CCc2nc3sc(C(=O)N[C@H](CO)c4ccccc4)cc3cc2C1 (stereo partly drawn) [Example 160],1000 to 10000 nM,
"CC(C)(C)C1CCc2nc3sc(C(=O)N[C@H](CO)Cc4ccc(O)cc4)cc3cc2C1 (stereo partly drawn) [Example 161, 6-tert-Butyl-5,6,7,8-tetrahydrothieno[2,3-b]quinoline-2-carboxylic acid [2-hydroxy-(1S)-1-(4-hydroxybenzyl)ethyl]amide]",> 10000 nM,
"CC(C)[C@@H](C#N)NC(=O)c1cc2cc3c(nc2s1)CCC(C(C)(C)C)C3 (stereo partly drawn) [Example 162, 6-tert-Butyl-5,6,7,8-tetrahydrothieno[2,3-b]quinoline-2-carboxylic acid [(1S)-1-cyano-2-methylpropyl]amide]",> 10000 nM,
"CC(C)(C)C1CCc2nc3sc(C(=O)N[C@H](C#N)Cc4ccccc4)cc3cc2C1 (stereo partly drawn) [Example 163, 6-tert-Butyl-5,6,7,8-tetrahydrothieno[2,3-b]quinoline-2-carboxylic acid [(1S)-1-cyano-2-phenylethyl)amide]",> 10000 nM,
CC(C)(C)C1CCc2nc3sc(C(=O)N[C@H](C#N)Cc4ccc(O)cc4)cc3cc2C1 (stereo partly drawn) [Example 164],100 to 1000 nM,
CC(C)(C)C1CCc2nc3sc(C(=O)N[C@H](C#N)c4ccccc4)cc3cc2C1 (stereo partly drawn) [Example 165],> 10000 nM,
"CC[C@@H](C#N)NC(=O)c1cc2cc3c(nc2s1)CCC(C(C)(C)C)C3 (stereo partly drawn) [Example 166, 6-tert-Butyl-5,6,7,8-tetrahydrothieno[2,3-b]quinoline-2-carboxylic acid [(1S)-1-cyanopropyl)amide]",> 10000 nM,
"CC(C)(C)C1CCc2nc3sc(C(=O)NCC#N)cc3cc2C1 (stereo not drawn) [Example 167, 6-tert-Butyl-5,6,7,8-tetrahydrothieno[2,3-b]quinoline-2-carboxylic acid cyanomethyl-amide]",100 to 1000 nM,
"CC(C)(C)C1CCc2nc3sc(C(=O)NCC(=N)N)cc3cc2C1 (stereo not drawn) [Example 168, 6-tert-Butyl-5,6,7,8-tetrahydrothieno[2,3-b]quinoline-2-carboxylic acid carbamimidoylmethylamide]",< 100 nM,IC50 [2]: 8 nM
C[C@H](NC(=O)c1cc2cc3c(nc2s1)CCC(C(C)(C)C)C3)C(=N)N (stereo partly drawn) [Example 169],< 100 nM,

Compound,IC50 [1],also measured
CC[C@H](NC(=O)c1cc2cc3c(nc2s1)CCC(C(C)(C)C)C3)C(=N)N (stereo partly drawn) [Example 170],100 to 1000 nM,
CC(C)[C@H](NC(=O)c1cc2cc3c(nc2s1)CCC(C(C)(C)C)C3)C(=N)N (stereo partly drawn) [Example 171],1000 to 10000 nM,
CC(C)(C)C1CCc2nc3sc(C(=O)N[C@H](C(=N)N)c4ccccc4)cc3cc2C1 (stereo partly drawn) [Example 172],100 to 1000 nM,
CC(C)(C)C1CCc2nc3sc(C(=O)N[C@@H](Cc4ccccc4)C(=N)N)cc3cc2C1 (stereo partly drawn) [Example 173],1000 to 10000 nM,
CC(C)(C)C1CCc2nc3sc(C(=O)N[C@@H](Cc4ccc(O)cc4)C(=N)N)cc3cc2C1 (stereo partly drawn) [Example 174],1000 to 10000 nM,
"CC(C)[C@@H](CN)NC(=O)c1cc2cc3c(nc2s1)CCC(C(C)(C)C)C3 (stereo partly drawn) [Example 175, 6-tert-butyl-5,6,7,8-tetrahydrothieno[2,3-b]quinoline-2-carboxylic acid [(1S)-1-aminomethyl-2-methylpropyl)amide]",1000 to 10000 nM,
C[C@@H](CN)NC(=O)c1cc2cc3c(nc2s1)CCC(C(C)(C)C)C3 (stereo partly drawn) [Example 176],< 100 nM,
CCC(CN)NC(=O)c1cc2cc3c(nc2s1)CCC(C(C)(C)C)C3 (stereo not drawn) [Example 177],< 100 nM,IC50 [2]: 65 nM
CC(C)(C)C1CCc2nc3sc(C(=O)NC(CN)c4ccccc4)cc3cc2C1 (stereo not drawn) [Example 178],< 100 nM,IC50 [2]: 25 nM
CC(C)(C)C1CCc2nc3sc(C(=O)N[C@H](CN)Cc4ccccc4)cc3cc2C1 (stereo partly drawn) [Example 179],100 to 1000 nM,
CC(C)(C)C1CCc2nc3sc(C(=O)N[C@H](CN)Cc4ccc(O)cc4)cc3cc2C1 (stereo partly drawn) [Example 180],100 to 1000 nM,
"CC(C)(C)C1CCc2nc3sc(-c4ncc[nH]4)cc3cc2C1 (stereo not drawn) [Example 181, 6-tert-Butyl-2-(1H-imidazol-2-yl)-5,6,7,8-tetrahydrothieno[2,3-b]quinoline]",100 to 1000 nM,
"CC(C)(C)C1CCc2nc3sc(-c4nnc[nH]4)cc3cc2C1 (stereo not drawn) [Example 182, 6-tert-Butyl-2-(4H-[1,2,4]triazol-3-yl)-5,6,7,8-tetrahydrothieno[2,3-b]quinoline]",100 to 1000 nM,
"CC(C)(C)C1CCc2nc3sc(-c4ncc(CO)[nH]4)cc3cc2C1 (stereo not drawn) [Example 183, [2-(6-tert-Butyl-5,6,7,8-tetrahydrothieno[2,3-b]quinolin-2-yl)-3H-imidazol-4-yl]methanol]",1000 to 10000 nM,
"CC(C)(C)C1CCc2nc3sc(-c4ncc(CN)[nH]4)cc3cc2C1 (stereo not drawn) [Example 184, [2-(6-tert-Butyl-5,6,7,8-tetrahydrothieno[2,3-b]quinolin-2-yl)-3H-imidazol-4-yl]methylamine]",100 to 1000 nM,
"CC(C)(C)C1CCc2nc3sc(-c4ncc(CO)o4)cc3cc2C1 (stereo not drawn) [Example 185, [2-(6-tert-Butyl-5,6,7,8-tetrahydrothieno[2,3-b]quinolin-2-yl)oxazol-5-yl]methanol]",1000 to 10000 nM,
"CC(C)(C)C1CCc2nc3sc(-c4ncc(CN)o4)cc3cc2C1 (stereo not drawn) [Example 186, [2-(6-tert-Butyl-5,6,7,8-tetrahydrothieno[2,3-b]quinolin-2-yl)oxazol-5-yl]methylamine]",1000 to 10000 nM,
"CCOC(=O)c1sc2nc3c(cc2c1N)CC([Si](C)(C)C)CC3 (stereo not drawn) [Example 187, Ethyl 3-Amino-5,6,7,8-Tetrahydro-6-(Trimethylsilyl)thieno[2,3-b]quinoline-2-Carboxylate]",,IC50 [3]: > 10000 nM
"CCOC(=O)c1cc2cc3c(nc2s1)CCC([Si](C)(C)C)C3 (stereo not drawn) [Example 188, Ethyl 5,6,7,8-Tetrahydro-6-(Trimethylsilyl)thieno[2,3b]quinoline-2-Carboxylate]",,IC50 [3]: > 10000 nM
"C[C@@H](CO)NC(=O)c1cc2cc3c(nc2s1)CCC([Si](C)(C)C)C3 (stereo partly drawn) [Example 190, 5,6,7,8-Tetrahydro-N-(2-hydroxy-1(S)-methylethyl)-6-(Trimethylsilyl)thieno[2,3-b]quinoline-2-Carboxamide]",,"IC50 (nM) (KSP inhibitory activity, end-point assay, class symbols (Table 1)): B/C"
"C[Si](C)(C)C1CCc2nc3sc(C(=O)NCCN)cc3cc2C1 (stereo not drawn) [Example 191, N-(2-Aminoethyl) 5,6,7,8-Tetrahydro-6-(Trimethylsilyl)thieno[2,3-b]quinoline-2-Carboxamide]",,"IC50 [3]: < 100 nM; IC50 (IC50 (nM), exact IC50 values, end-point assay (Table 2)): 10 nM"
"CC(C)(C)C1CCc2nc3sc(C(=O)NCCN)c(N)c3cc2C1 (stereo not drawn) [Example 193, 3-Amino-N-(2-Aminoethyl)-6-(1,1-Dimethylethyl)-5,6,7,8-Tetrahydrothieno[2,3-b]quinoline-2-Carboxamide]",1000 to 10000 nM,
"CC(C)(C)C1CCc2nc3sc(C(=O)NCCN4CCOCC4)cc3cc2C1 (stereo not drawn) [Example 194, 6-(1,1-Dimethylethyl)-5,7,8-Tetrahydro-N-[2-(4-Morpholinyl)ethyl]thieno[2,3-b]quinoline-2-Carboxamide]",1000 to 10000 nM,
"CC(C)(C)C1CCc2nc3sc(C(=O)NCC4CCNCC4)cc3cc2C1 (stereo not drawn) [Example 195, 6-(1,1-Dimethylethyl)-5,6,7,8-Tetrahydro-N-(4-Piperidinylmethyl)thieno[2,3-b]quinoline-2-Carboxamide]",1000 to 10000 nM,
"CC(C)(C)C1CCc2nc3sc(C(=O)NCCCN4CCCC4=O)cc3cc2C1 (stereo not drawn) [Example 196, 6-(1,1-Dimethylethyl)-5,6,7,8-Tetrahydro-N-[3-(2-oxo-1-Pyrrolidinyl)propyl]thieno[2,3-b]quinoline-2-Carboxamide]",1000 to 10000 nM,
"CC(C)(C)C1CCc2nc3sc(C(=O)NCCN4CCNCC4)cc3cc2C1 (stereo not drawn) [Example 197, 6-(1,1-Dimethylethyl)-5,6,7,8-Tetrahydro-N-[2-(1-Piperazinyl)ethyl]thieno[2,3-b]quinoline-2-Carboxamide]",100 to 1000 nM,
